Patent US20130109738A1, “Control of Cardiac Growth, Differentiation and Hypertrophy” (The Board of Trustees of the Leland Stanford Junior …, priority 2010, published 2013)
Entries after “also recorded” stand apart in the source; their conditions may differ.

Assays:
[1] = tested on: α-MHC promoter; test: Luciferase reporter assay of α-MHC promoter activity in SW13 cells; type: cell-based, human
Description: (§1) Cloning and Luciferase Reporter Assay Full length as well as serially truncated versions of intergenic α-MHC and β-MHC promoters were cloned into pREP4-Luc reporter plasmid, as detailed in the supplementary method. The constructs were transfected into SW13 cells with lipofectamine 2000 (Invitrogen, Calif.) along with pREP7-RL as a transfection efficiency control and Brg1 expression vector with the appropriate empty vector control. Luciferase activity was measured and normalized to that of Renilla luciferase construct using the Dual-Luciferase Reporter System (Promega, Wis.).
(§2) Cloning and Luciferase Reporter Assay Specific truncations for the reporter constructs are as follows: for α-MHC promoter, full length promoter spans from 4243 by upstream and 192 by downstream of the transcription start site (−4243, +192), serially truncated versions span (−2537, +192), (−1802, +192), and (−462, +192). Likewise, β-MHC promoters span (−3561, +222), (−1770, +222), and (−835, +222).

[2] = tested on: β-MHC promoter; test: Luciferase reporter assay of β-MHC promoter activity in SW13 cells; type: cell-based, human
Description: as §1, §2

[3] = tested on: α-MHC and β-MHC expression in cardiac ventricles; test: Quantitative RT-PCR of ventricular α-MHC and β-MHC in cultured whole embryos; set-up: species or system mouse
Description: (§3) Whole embryo culture Embryos ([…]) with intact yolk sacs were isolated and incubated in 1 ml culture medium containing 97% rat serum (Harlan Biosciences, Cincinnati, Ohio), 2 mg glucose, 100 U penicillin G and 100 μg streptomycin that was rotated slowly at […] and gassed periodically (every 8 hours) with 20% oxygen, 5% carbon dioxide, 75% nitrogen from E8.75 to E9.5, and 70% oxygen, 5% carbon dioxide and 25% nitrogen from E9.5 to E10.5. BMP10 (10 nM, RD Systems, Minneapolis, Minn.), BSA (125 ng/ml), TSA (100-500 nM, Sigma-Aldrich, St. Louis, Mo.), PJ-34 (20 uM, Alexis Corporation, San Diego)), BrdU (30_g/mL, Simga-Aldrich) or DMSO was added directly to the culture medium or during the last six hours for BrdU. Embryos were harvested 36-48 hours later for analysis.
Quantitative RT-PCR analysis. Quantitative RT-PCR analyses were performed as described previously to examine gene expressions in the cardiac ventricles of E10.5/E11.5 embryonic hearts and adult hearts. The following primer sequences were used: Murine MHO, 5′ primer […], 3′ primer […]. Murine β-MHC, 5″ primer […], 3′ primer […]. Murine HPRT, 5′ primer GCTGGTGAAAAGGACCTCT, 3′ primer […]. Murine Brg1, 5″ primer […], 3′ primer […]. Human H3F3A, 5′ primer […], 3′ primer […]. Human Brg1, 5′ primer […], 3′ primer […]. Human α-MHC and β-MHC were by Taqman probes (Applied Biosciences, Foster City, Calif.. RT-PCR reactions were performed using SYBR green master mix (BioRad, Hercules, Calif.) or Taqman reagents (Applied Biosciences), and the primer sets were tested to be quantitative. Threshold cycles and melting curve measurements were performed with software.

[4] = tested on: myocardial proliferation in cultured embryos; test: Myocardial BrdU incorporation in whole embryo culture; set-up: species or system mouse
Description: Quantitative analysis of myocardial development H&E-stained 7 μm paraffin sections were used for the morphometric analysis of the compact and trabecular myocardium. The following parameters were measured: thickness of compact 4 myocardium, number of trabeculi directly connected to compact myocardium, and trabecular area normalized to ventricular size. BrdU-stained sections were used to count the number of BrdU-positive cells per area of myocardium or per number of cells in the endocardium or endocardial cushions. All quantification and scale measurement were performed using NIS-Elements software (Nikon).
as §3
Proliferation and apoptosis analysis. Pregnant mice were injected with BrdU (Sigma, 100 μg/ml, intraperitoneal injection) for 6 hours prior to embryo isolation at E10.5 or E11.5. Incorporated BrdU was stained in the tissue-section of the heart according to manufacturer's protocol (Zymed Laboratories, South San Francisco, Calif.). Apoptosis of embryos were analyzed by TUNEL staining using a kit (Roche, Applied Science, Indianapolis, Ind.).

[5] = tested on: embryos; test: Gross morphology of cultured whole embryos; set-up: species or system mouse; conditions: whole embryos cultured from E9 to E10, compared to littermates treated with DMSO
Description: as §3

[6] = whole embryos cultured from E9 to E10, vs DMSO

CN(C)CC(=O)Nc1ccc2[nH]c(=O)c3ccccc3c2c1 [PJ-34]
effect on Brg1-mediated α-MHC repression ([1]; SW13 cells, PARP1 inhibition): reduced
effect on Brg1-mediated β-MHC activation ([2]; SW13 cells, PARP1 inhibition): reduced
MHC switch in cultured embryos ([3]; embryos cultured from E9 to E10, PJ-34 20 uM): exhibited α- and β-MHC switches; also recorded: causes MHC switch from β-MHC to α-MHC

CC(/C=C/C(=O)NO)=C\[C@@H](C)C(=O)c1ccc(N(C)C)cc1 [TSA, trichostatin A]
myocardial proliferation (BrdU incorporation) ([4]; wildtype embryos cultured from E8.75 to E10.5, BrdU last six hours, vs DMSO): normal
effect on BAF-mediated repression of α-MHC reporter ([1]; SW13 cells transfected with Brg1 expression vector): reversed the BAF-mediated repression of α-MHC
gross morphology of treated embryos [5]: grossly normal
effect on Brg1-induced β-MHC promoter activation ([2]; SW13 cells transfected with Brg1-expressing plasmid): no significant impact
reduction of β-MHC promoter activity ([2]; SW13 cells, basal activity without Brg1): 55%
increase in α/β MHC ratio [3, 6]: 3.5 folds
α-MHC expression [3, 6]: significantly up-regulated
β-MHC expression [3, 6]: down-regulated

B1: BMP10: BMP10 protein (10 nM, RD Systems) required for the proliferation of myocardial cells (protein, UniProt O95393 317-424, looked up)
Bone morphogenetic protein 10: NAKGNYCKRTPLYIDFKEIGWDSWIIAPPGYEAYECRGVCNYPLAEHLTPTKHAIIQALVHLKNSQKASKACCVPTKLEPISILYLDKGVVTYKFKYEGMAVSECGCR
increase of BrdU incorporation ([4]; Sm22αCre;Brg1F/F embryos cultured from E8.75 for 42 to 48 hours, BMP10 10 nM): 2.6 folds
BrdU incorporation restored to (relative to control embryos) ([4]; Sm22αCre;Brg1F/F embryos cultured from E8.75 for 42 to 48 hours, BMP10 10 nM, untreated mutant 33+/−12%): 85+/−10%
effect on premature MHC differentiation (α-MHC over-, β-MHC under-expression) ([3]; cultured Sm22αCre;Brg1F/F embryos, BMP10 vs BSA): failed to reverse the premature MHC differentiation
